{
  "source": "patent US5315013A",
  "about": "“Substituted pyrazole angiotensin II antagonists” (E. I. Du Pont de Nemours and Company, priority 1992, dated 1994)",
  "origin": "cited, not measured here",
  "data": [
    {"compound": "CNCC(=O)N[C@@H](CCCN=C(N)N)C(=O)N[C@H](C(=O)N[C@@H](Cc1ccc(O)cc1)C(=O)N[C@H](C(=O)N[C@@H](Cc1cnc[nH]1)C(=O)N1CCC[C@H]1C(=O)N[C@@H](C)C(=O)O)C(C)C)C(C)C", "note": "[Saralasin]", "values": [
      {"measurement": "lowering of arterial pressure", "setting": "arterial pressure; mammals and man, elevated pressure dependent on circulating AII", "result": "demonstrated to lower arterial pressure in mammals and man"},
      {"measurement": "effect of oral doses", "setting": "arterial pressure; oral", "result": "oral doses being ineffective"},
      {"measurement": "pressor effects (agonistic character)", "setting": "arterial pressure; pressure not sustained by AII", "result": "generally elicits pressor effects when the pressure is not sustained by AII"},
      {"measurement": "effects of AII on the blood pressure blocked", "setting": "AII; pithed rats", "result": "blocks the effects of AII on the blood pressure of pithed rats"},
      {"measurement": "competitive antagonism of the actions of AII", "setting": "AII; potency in words", "result": "one of the most potent competitive antagonists of the actions of AII"}
    ]}
  ]
}
